From patent US20250134874A1, “PHARMACEUTICAL FORMULATIONS COMPRISING 3-({[(4R)-7-{METHYL[4-(PROPAN-2-YL)PHENYL]AMINO}-3,4-DIHYDRO-2H-1-BENZOPYRAN-4-YL]METHYL}AMINO)PYRIDINE-4-CARBOXYLIC ACID” (TACHYON THERAPEUTICS, INC., priority 2021, published 2025)
Like-named read-outs stand apart in the source and are kept apart here.

Experiment: Sink condition: solubility of API in DI water and SGF
Assay type: physicochemical
Conditions: for solubility: thermodynamic from solid, read-out: Final Concentration
Method: • 1. 5 mg of API was placed into a glass vial. • 2. Added 0.2 mL of diluent (DI water and SGF) into the vial, then sonicate and vortex to dissolve the API. • 3. If the solution is not clear after 5 minutes, add additional 0.2 mL of diluent into the vial, then sonicate and vortex to dissolve the API. • 4. Repeat step 4 till all API is dissolved. • 5. Calculate the final concentration of API and the maximum dissolvable dose used in dissolution test.

## CC(C)c1ccc(N(C)c2ccc3c(c2)OCC[C@H]3CNc2cnccc2C(=O)O)cc1 [Compound 1, 3-({[(4R)-7-{methyl[4-(propan-2-yl)phenyl]amino}-3,4-dihydro-2H-1-benzopyran-4-yl]methyl}amino)pyridine-4-carboxylic acid]
Diluent DI water
  Maximum dissolvable dose used in dissolution test: 717 mg
  solubility: ≥ 4300 µg/mL
Diluent SGF
  Maximum dissolvable dose used in dissolution test: 617 mg
Simulated gastric fluid, diluent SGF
  solubility: ≥ 3700 µg/mL
